Assay results as given in patent US20220218852A1, “NOVEL RADIOLABELLED CXCR4-TARGETING COMPOUNDS FOR DIAGNOSIS AND THERAPY” (PROVINCIAL HEALTH SERVICES AUTHORITY, priority 2019, published 2022).
Positions of bridges follow the written chain, without caps; N, C: chain ends. Non-standard residues stand in square brackets, D forms with d. Residues, ends and D or L forms follow the SMILES beside them. Groups on a side chain read outwards from the residue. *: point of attachment. DOTA = O=C(O)CN1CCN(CC(=O)O)CCN(CC(=O)*)CCN(CC(=O)O)CC1; 2Nal = N[C@@H](Cc1ccc2ccccc2c1)C(=O)O; Lys(iPr) = CC(C)NCCCC[C@H](N)C(=O)O

What was measured:
Z138 xenograft = test: Dosimetry, Human Extrapolated from Mouse Model, based on Z138 xenograft mice; type: in vivo; details: Lu-177, Z138 xenograft mice
Description: (§1) The multi-time-point organ uptake obtained from biodistribution data of ^177Lu-labeled analogs was decayed to their appropriate time-point, fitted to a mono-exponential or bi-exponential model (fit chosen based on R2 and residuals) in Python (version 3.7). The area under the curve was used to compute residence times which were multiplied by model organ mass for human (NURBS model) and mouse (25 g MOBY mouse phantom) for use in OLINDA/EXM software (Hermes Medical Solution; version 2.0) that calculated dosimetry for an average mouse (Stabin et al., J Nucl Med. 2005, 46:1023-1027; Keenan et al., J Nucl Med. 2010, 51:471-476) and extrapolated to an average human male (Segars et al., J Nucl Med. 2001, 42:7; Stabin et al., J Nucl Med. 2012, 53:1807-13).

GRANTA519 xenograft = test: Dosimetry, Human Extrapolated from Mouse Model, based on GRANTA519 xenograft mice; type: in vivo; details: Lu-177, GRANTA519 xenograft mice
Description: as §1

`CC(C)NCCCC[C@@H]1NC(=O)[C@H](Cc2ccc(O)cc2)NC(=O)[C@H](Cc2ccccc2)NC(=O)CC[C@H](C(=O)N[C@@H](CCCCNC(C)C)C(=O)N[C@@H](CCCCNC(=O)[C@H](CCC(=O)O)NC(=O)[C@H](CCC(=O)O)NC(=O)[C@H](CCC(=O)O)NC(=O)CN2CCN(CC(=O)O)CCN(CC(=O)O)CCN(CC(=O)O)CC2)C(N)=O)NC(=O)CNC(=O)[C@H](Cc2ccc3ccccc3c2)NC(=O)[C@@H](CCCNC(=N)N)NC1=O` [[^177Lu]Lu-BL02, metal not drawn] (FY[Lys(iPr)][dR][2Nal]G[dE][Lys(iPr)]K([Glu-Glu-Glu-DOTA])-NH2; lactam N-7) was tested, and the “Absorbed Dose, Adrenals” value (Z138 xenograft; Adrenals) was 0.00413 mGy/MBq, the “Absorbed Dose, Brain” value (Z138 xenograft; Brain) was 4.5e−05 mGy/MBq and the “Absorbed Dose, Esophagus” value (Z138 xenograft; Esophagus) was 0.000564 mGy/MBq. The “Absorbed Dose, Eyes” value (Z138 xenograft; Eyes) was 0.000296 mGy/MBq, the “Absorbed Dose, Gallbladder Wall” value (Z138 xenograft; Gallbladder Wall) was 0.000923 mGy/MBq and the “Absorbed Dose, Heart” value (Z138 xenograft; Heart) was 0.00148 mGy/MBq. The “Absorbed Dose, Kidneys” value (Z138 xenograft; Kidneys) was 0.0332 mGy/MBq, the “Absorbed Dose, Left colon” value (Z138 xenograft; Left colon) was 0.000755 mGy/MBq and the “Absorbed Dose, Liver” value (Z138 xenograft; Liver) was 0.0183 mGy/MBq. For the same molecule, the “Absorbed Dose, Lungs” value (Z138 xenograft; Lungs) was 0.0126 mGy/MBq, the “Absorbed Dose, Pancreas” value (Z138 xenograft; Pancreas) was 0.00105 mGy/MBq and the “Absorbed Dose, Prostate” value (Z138 xenograft; Prostate) was 0.000336 mGy/MBq. The “Absorbed Dose, Rectum” value (Z138 xenograft; Rectum) was 0.000473 mGy/MBq, the “Absorbed Dose, Red Marrow” value (Z138 xenograft; Red Marrow) was 0.000377 mGy/MBq and the “Absorbed Dose, Remainder of the Body” value (Z138 xenograft; Remainder of the Body) was 0.00117 mGy/MBq. The “Absorbed Dose, Right colon” value (Z138 xenograft; Right colon) was 0.000642 mGy/MBq, the “Absorbed Dose, Salivary Glands” value (Z138 xenograft; Salivary Glands) was 0.00031 mGy/MBq and the “Absorbed Dose, Skeleton” value (Z138 xenograft; Skeleton) was 0.000457 mGy/MBq. The “Absorbed Dose, Small Intestine” value (Z138 xenograft; Small Intestine) was 0.000691 mGy/MBq, the “Absorbed Dose, Spleen” value (Z138 xenograft; Spleen) was 0.0193 mGy/MBq and the “Absorbed Dose, Stomach Wall” value (Z138 xenograft; Stomach Wall) was 0.000883 mGy/MBq. The “Absorbed Dose, Testes” value (Z138 xenograft; Testes) was 0.00168 mGy/MBq, the “Absorbed Dose, Thymus” value (Z138 xenograft; Thymus) was 0.000454 mGy/MBq and the “Absorbed Dose, Thyroid” value (Z138 xenograft; Thyroid) was 0.000396 mGy/MBq. For the same molecule, the “Absorbed Dose, Urin Blad” value (Z138 xenograft; Urin Blad) was 0.00032 mGy/MBq, the “Absorbed Dose, Adrenals” value (GRANTA519 xenograft; Adrenals) was 0.00757 mGy/MBq and the “Absorbed Dose, Brain” value (GRANTA519 xenograft; Brain) was 7.33e−05 mGy/MBq. The “Absorbed Dose, Esophagus” value (GRANTA519 xenograft; Esophagus) was 0.00043 mGy/MBq, the “Absorbed Dose, Eyes” value (GRANTA519 xenograft; Eyes) was 0.000245 mGy/MBq and the “Absorbed Dose, Gallbladder Wall” value (GRANTA519 xenograft; Gallbladder Wall) was 0.000863 mGy/MBq. The “Absorbed Dose, Heart” value (GRANTA519 xenograft; Heart) was 0.00148 mGy/MBq, the “Absorbed Dose, Kidneys” value (GRANTA519 xenograft; Kidneys) was 0.0311 mGy/MBq and the “Absorbed Dose, Left colon” value (GRANTA519 xenograft; Left colon) was 0.00141 mGy/MBq. The “Absorbed Dose, Liver” value (GRANTA519 xenograft; Liver) was 0.0185 mGy/MBq, the “Absorbed Dose, Lungs” value (GRANTA519 xenograft; Lungs) was 0.00333 mGy/MBq and the “Absorbed Dose, Pancreas” value (GRANTA519 xenograft; Pancreas) was 0.000976 mGy/MBq. The “Absorbed Dose, Prostate” value (GRANTA519 xenograft; Prostate) was 0.000284 mGy/MBq, the “Absorbed Dose, Rectum” value (GRANTA519 xenograft; Rectum) was 0.000761 mGy/MBq and the “Absorbed Dose, Red Marrow” value (GRANTA519 xenograft; Red Marrow) was 0.000343 mGy/MBq. The “Absorbed Dose, Remainder of the Body” value (GRANTA519 xenograft; Remainder of the Body) was 0.000952 mGy/MBq, the “Absorbed Dose, Right colon” value (GRANTA519 xenograft; Right colon) was 0.00095 mGy/MBq and the “Absorbed Dose, Salivary Glands” value (GRANTA519 xenograft; Salivary Glands) was 0.000254 mGy/MBq. For the same molecule, the “Absorbed Dose, Skeleton” value (GRANTA519 xenograft; Skeleton) was 0.000444 mGy/MBq, the “Absorbed Dose, Small Intestine” value (GRANTA519 xenograft; Small Intestine) was 0.00131 mGy/MBq and the “Absorbed Dose, Spleen” value (GRANTA519 xenograft; Spleen) was 0.00859 mGy/MBq. The “Absorbed Dose, Stomach Wall” value (GRANTA519 xenograft; Stomach Wall) was 0.000464 mGy/MBq, the “Absorbed Dose, Testes” value (GRANTA519 xenograft; Testes) was 0.00245 mGy/MBq and the “Absorbed Dose, Thymus” value (GRANTA519 xenograft; Thymus) was 0.000336 mGy/MBq. For the same molecule, the “Absorbed Dose, Thyroid” value (GRANTA519 xenograft; Thyroid) was 0.00029 mGy/MBq and the “Absorbed Dose, Urin Blad” value (GRANTA519 xenograft; Urin Blad) was 0.000269 mGy/MBq.
